ChEMBL document CHEMBL4177767, “Discovery of N2-(4-Amino-cyclohexyl)-9-cyclopentyl- N6-(4-morpholin-4-ylmethyl-phenyl)- 9H-purine-2,6-diamine as a Potent FLT3 Kinase Inhibitor for Acute Myeloid Leukemia with FLT3 Mutations” (J Med Chem, 2018)
Activity calls are given as the source filed them. No cut-off for these calls is given here.

Experiments:
MV4-11 [1] = assay: Cell cycle arrest in human MV4-11 cells assessed as accumulation at sub-G1 phase at 100 nM after 24 hrs by propidium iodide staining-based flow cytometric method (reference value: 9.2%); assay type: functional
[2] = target: Receptor-type tyrosine-protein kinase FLT3 (Homo sapiens) (UniProt P36888); assay: Inhibition of human N-terminal GST-tagged FLT3 cytoplasmic domain expressed in baculovirus expression system at 10 nM
U-937 = assay: cells; details: Homo sapiens, U-937, 72 h
Rattus norvegicus [3] = assay: Toxicity in Wistar rat assessed as pathological macroscopic changes at 200 mg/kg, po after 15 days; assay type: organism-based; details: in vivo, 360 h
MV4-11 [4] = assay: Growth inhibition of human MV4-11 cells after 72 hrs by calcein AM dye-based fluorescence assay; assay type: functional; details: MV4-11, 72 h
[5] = test system: Receptor-type tyrosine-protein kinase FLT3 (Homo sapiens), P36888 [UNDEFINED MUTATION]; details: MV4-11, at 0.01 to 100 nM
Description: Inhibition of FLT3 ITD mutant in human MV4-11 cells assessed as decrease in STAT5 phosphorylation at Y694 at 0.01 to 100 nM after 1 hr by immunoblot analysis

MV4-11 [6] = assay: Cell cycle arrest in human MV4-11 cells assessed as accumulation at S phase at 0.01 nM after 24 hrs by propidium iodide staining-based flow cytometric method (reference value: 28.1%); assay type: functional
MV4-11 [7] = assay: Cell cycle arrest in human MV4-11 cells assessed as accumulation at G2/M phase at 100 nM after 24 hrs by propidium iodide staining-based flow cytometric method (reference value: 15.9%); assay type: functional
[8] = target: Dual specificity protein kinase CLK1 (Homo sapiens) (UniProt P49759); details: 10 nM
Dual specificity protein kinase CLK1 (Homo sapiens), sequence (P49759 whole entry, looked up): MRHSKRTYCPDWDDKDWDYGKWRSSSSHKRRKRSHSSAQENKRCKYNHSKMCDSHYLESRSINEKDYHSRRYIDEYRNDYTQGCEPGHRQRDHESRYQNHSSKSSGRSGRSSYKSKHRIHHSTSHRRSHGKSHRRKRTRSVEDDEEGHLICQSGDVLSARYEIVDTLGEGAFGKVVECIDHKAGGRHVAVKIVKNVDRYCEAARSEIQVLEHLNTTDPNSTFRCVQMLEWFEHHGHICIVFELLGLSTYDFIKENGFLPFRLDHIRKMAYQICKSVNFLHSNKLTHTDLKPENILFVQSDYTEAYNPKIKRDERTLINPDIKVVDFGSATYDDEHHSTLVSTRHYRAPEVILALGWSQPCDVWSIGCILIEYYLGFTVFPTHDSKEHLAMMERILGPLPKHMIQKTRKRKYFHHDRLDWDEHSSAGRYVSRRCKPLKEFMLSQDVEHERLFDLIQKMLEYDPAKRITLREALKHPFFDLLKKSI
Description: Inhibition of human N-terminal GST-tagged CLK1 catalytic domain expressed in baculovirus expression system at 10 nM relative to control

[9] = test system: Receptor-type tyrosine-protein kinase FLT3 (Homo sapiens), P36888 [UNDEFINED MUTATION]
Description: Inhibition of FLT3 ITD mutant (unknown origin) transfected in mouse BA/F3 cells assessed as growth inhibition after 72 hrs by calcein AM dye-based fluorescence assay

MV4-11 [10] = assay: Induction of apoptosis in human MV4-11 cells assessed as increase in caspase-3/7 activity using Ac-DEVD-AMC substrate after 24 hrs by fluorescence assay; assay type: functional, cell-based
[11] = target: MAP kinase-interacting serine/threonine-protein kinase 2 (Homo sapiens) (UniProt Q9HBH9); details: 10 nM
MAP kinase-interacting serine/threonine-protein kinase 2 (Homo sapiens), sequence (Q9HBH9 whole entry, looked up): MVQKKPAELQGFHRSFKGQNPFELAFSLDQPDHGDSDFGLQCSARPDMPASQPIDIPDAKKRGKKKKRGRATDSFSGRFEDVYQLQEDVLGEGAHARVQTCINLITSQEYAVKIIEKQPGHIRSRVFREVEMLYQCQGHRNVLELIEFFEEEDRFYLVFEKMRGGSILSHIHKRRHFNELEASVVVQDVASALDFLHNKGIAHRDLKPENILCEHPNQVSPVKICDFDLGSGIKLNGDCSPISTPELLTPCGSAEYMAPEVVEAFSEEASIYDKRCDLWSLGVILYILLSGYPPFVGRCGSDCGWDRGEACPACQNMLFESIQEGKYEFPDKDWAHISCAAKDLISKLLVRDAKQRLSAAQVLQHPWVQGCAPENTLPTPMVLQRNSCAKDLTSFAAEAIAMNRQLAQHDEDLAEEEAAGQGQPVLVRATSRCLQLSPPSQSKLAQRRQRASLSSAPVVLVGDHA
Description: Inhibition of full length human N-terminal GST-tagged MNK2 expressed in baculovirus expression system at 10 nM relative to control

[12] = test system: Receptor-type tyrosine-protein kinase FLT3 (Homo sapiens), P36888 [UNDEFINED MUTATION]; details: MV4-11, at 0.01 to 100 nM; remark: listed apart in the source
Description: Inhibition of FLT3 ITD mutant in human MV4-11 cells assessed as decrease in AKT phosphorylation at S473 at 0.01 to 100 nM after 1 hr by immunoblot analysis

[13] = target: Macrophage colony-stimulating factor 1 receptor (Homo sapiens) (UniProt P07333); details: 10 nM
Macrophage colony-stimulating factor 1 receptor (Homo sapiens), sequence (P07333 whole entry): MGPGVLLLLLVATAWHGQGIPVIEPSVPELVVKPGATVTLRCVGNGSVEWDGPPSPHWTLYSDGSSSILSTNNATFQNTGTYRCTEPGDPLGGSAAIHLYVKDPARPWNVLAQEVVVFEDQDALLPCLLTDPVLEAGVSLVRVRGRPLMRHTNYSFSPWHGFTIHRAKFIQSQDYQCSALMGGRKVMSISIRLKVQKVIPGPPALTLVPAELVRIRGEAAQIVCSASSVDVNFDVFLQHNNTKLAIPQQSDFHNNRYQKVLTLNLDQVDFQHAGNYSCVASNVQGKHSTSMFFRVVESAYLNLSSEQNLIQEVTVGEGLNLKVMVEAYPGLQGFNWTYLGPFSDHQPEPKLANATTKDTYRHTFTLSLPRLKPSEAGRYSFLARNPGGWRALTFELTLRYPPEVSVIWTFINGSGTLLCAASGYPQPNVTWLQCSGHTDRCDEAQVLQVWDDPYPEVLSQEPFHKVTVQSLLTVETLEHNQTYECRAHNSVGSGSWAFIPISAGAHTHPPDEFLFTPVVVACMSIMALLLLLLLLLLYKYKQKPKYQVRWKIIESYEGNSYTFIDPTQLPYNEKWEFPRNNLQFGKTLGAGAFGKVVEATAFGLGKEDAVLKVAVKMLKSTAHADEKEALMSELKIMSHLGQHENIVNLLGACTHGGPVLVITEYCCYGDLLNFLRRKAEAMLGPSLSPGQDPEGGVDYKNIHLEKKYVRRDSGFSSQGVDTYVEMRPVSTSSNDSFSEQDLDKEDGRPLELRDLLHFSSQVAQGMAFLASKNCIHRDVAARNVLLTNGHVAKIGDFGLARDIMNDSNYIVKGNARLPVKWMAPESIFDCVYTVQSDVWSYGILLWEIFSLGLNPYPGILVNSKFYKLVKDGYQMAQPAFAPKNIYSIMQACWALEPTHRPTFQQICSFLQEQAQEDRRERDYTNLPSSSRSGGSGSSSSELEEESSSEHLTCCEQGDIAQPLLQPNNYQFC
Description: Inhibition of human N-terminal GST-tagged FMS expressed in baculovirus expression system at 10 nM relative to control

MV4-11 [14] = assay: Cell cycle arrest in human MV4-11 cells assessed as accumulation at S phase at 0.1 nM after 24 hrs by propidium iodide staining-based flow cytometric method (reference value: 28.1%); assay type: functional
Mus musculus = assay: In vivo inhibition of FLT3 ITD mutant in human MV4-11 cells xenografted in athymic nu/nu mouse assessed as decrease in STAT5 phosphorylation at Y694 at 10 mg/kg, ip after 24 hrs by immunoblot method relative to control; assay type: functional; details: MV4-11, ip
[15] = target: Activated CDC42 kinase 1 (Homo sapiens) (UniProt Q07912); details: 10 nM
Description: Inhibition of human N-terminal GST-tagged ACK catalytic domain expressed in baculovirus expression system at 10 nM relative to control

Kasumi 1 = assay: cells; details: Homo sapiens, Kasumi 1, 72 h
[16] = target: Calcium/calmodulin-dependent protein kinase type II subunit delta (Homo sapiens) (UniProt Q13557); details: 10 nM
Calcium/calmodulin-dependent protein kinase type II subunit delta (Homo sapiens), sequence (Q13557 whole entry): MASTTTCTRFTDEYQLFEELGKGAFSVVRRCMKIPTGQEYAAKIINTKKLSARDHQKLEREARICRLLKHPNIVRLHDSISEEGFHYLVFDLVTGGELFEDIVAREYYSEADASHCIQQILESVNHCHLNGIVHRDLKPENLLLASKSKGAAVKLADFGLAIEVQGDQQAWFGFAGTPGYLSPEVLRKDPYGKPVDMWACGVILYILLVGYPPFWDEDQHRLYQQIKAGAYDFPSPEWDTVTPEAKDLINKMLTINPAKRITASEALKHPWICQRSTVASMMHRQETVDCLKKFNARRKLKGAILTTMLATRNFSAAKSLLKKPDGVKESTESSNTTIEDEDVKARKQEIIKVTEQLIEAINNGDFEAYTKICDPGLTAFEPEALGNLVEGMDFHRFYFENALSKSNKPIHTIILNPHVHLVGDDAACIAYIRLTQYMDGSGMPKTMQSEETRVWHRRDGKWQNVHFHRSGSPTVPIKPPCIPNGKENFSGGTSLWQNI
Description: Inhibition of full length human N-terminal GST-tagged CaMK2delta expressed in baculovirus expression system at 10 nM relative to control

Rattus norvegicus [17] = assay: Toxicity in Wistar rat assessed as pathological macroscopic changes at 100 mg/kg, iv after 15 days; assay type: organism-based; details: in vivo, 360 h
[18] = target: Platelet-derived growth factor receptor beta (Homo sapiens) (UniProt P09619); details: 10 nM
Platelet-derived growth factor receptor beta (Homo sapiens), sequence (P09619 whole entry): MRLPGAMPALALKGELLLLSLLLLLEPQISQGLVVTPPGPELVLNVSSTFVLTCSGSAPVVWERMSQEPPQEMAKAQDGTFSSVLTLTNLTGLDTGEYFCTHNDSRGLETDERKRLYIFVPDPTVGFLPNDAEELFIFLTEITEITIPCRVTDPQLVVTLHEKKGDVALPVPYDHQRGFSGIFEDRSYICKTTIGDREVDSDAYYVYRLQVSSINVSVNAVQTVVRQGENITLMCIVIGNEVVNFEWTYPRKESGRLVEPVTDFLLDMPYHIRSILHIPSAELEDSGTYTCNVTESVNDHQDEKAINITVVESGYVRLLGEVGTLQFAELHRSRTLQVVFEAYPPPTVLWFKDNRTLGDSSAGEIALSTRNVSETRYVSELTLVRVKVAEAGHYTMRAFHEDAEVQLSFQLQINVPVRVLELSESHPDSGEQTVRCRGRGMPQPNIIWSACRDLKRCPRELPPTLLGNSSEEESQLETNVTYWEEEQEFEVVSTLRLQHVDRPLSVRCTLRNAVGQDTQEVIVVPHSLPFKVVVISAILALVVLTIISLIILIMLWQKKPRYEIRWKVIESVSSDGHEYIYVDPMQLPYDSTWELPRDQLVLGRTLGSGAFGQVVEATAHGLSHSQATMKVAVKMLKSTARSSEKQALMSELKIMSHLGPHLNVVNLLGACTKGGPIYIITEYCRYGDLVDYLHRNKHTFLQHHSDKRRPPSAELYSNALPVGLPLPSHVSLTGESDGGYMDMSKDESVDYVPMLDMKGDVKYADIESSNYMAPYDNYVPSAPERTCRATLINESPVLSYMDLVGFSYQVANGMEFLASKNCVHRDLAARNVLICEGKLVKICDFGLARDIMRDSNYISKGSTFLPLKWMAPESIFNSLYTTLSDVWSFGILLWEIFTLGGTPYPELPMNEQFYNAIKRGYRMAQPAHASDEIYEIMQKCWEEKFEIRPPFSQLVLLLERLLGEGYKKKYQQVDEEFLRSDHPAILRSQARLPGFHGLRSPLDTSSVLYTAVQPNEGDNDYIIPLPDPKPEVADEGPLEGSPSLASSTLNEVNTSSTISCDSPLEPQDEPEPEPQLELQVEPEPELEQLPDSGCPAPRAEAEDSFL
Description: Inhibition of human N-terminal GST-tagged PDGFRbeta cytoplasmic domain expressed in baculovirus expression system at 10 nM relative to control

[19] = target: T1, Receptor-type tyrosine-protein kinase FLT3 (Homo sapiens, UniProt P36888); assay: biochemical; assay type: cell-based, Sf9
T1 sequence (P36888 whole entry): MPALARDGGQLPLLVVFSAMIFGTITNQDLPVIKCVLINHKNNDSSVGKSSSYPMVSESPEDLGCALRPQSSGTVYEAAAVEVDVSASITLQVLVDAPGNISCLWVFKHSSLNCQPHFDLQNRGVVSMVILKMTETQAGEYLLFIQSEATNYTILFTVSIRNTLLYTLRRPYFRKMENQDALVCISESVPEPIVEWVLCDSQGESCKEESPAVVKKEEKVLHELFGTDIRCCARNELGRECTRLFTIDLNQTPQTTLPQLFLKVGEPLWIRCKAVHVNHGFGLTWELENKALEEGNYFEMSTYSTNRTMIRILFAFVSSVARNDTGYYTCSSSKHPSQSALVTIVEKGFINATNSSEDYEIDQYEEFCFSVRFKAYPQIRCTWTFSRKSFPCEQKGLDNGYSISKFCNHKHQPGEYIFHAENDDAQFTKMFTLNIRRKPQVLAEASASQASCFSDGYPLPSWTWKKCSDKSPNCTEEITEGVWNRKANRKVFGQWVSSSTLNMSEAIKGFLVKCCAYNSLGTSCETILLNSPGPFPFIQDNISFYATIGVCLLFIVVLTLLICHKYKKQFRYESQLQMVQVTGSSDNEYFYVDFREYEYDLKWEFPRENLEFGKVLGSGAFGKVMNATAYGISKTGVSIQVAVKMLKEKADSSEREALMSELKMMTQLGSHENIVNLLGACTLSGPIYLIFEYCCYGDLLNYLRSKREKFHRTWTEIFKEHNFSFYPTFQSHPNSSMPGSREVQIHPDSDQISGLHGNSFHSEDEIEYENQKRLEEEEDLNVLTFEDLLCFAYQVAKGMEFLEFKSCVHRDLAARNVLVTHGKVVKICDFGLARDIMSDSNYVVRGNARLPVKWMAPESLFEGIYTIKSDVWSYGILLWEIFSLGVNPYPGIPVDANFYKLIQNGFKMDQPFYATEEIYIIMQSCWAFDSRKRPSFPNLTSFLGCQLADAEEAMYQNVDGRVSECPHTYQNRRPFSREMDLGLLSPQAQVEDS
Description: Inhibition of N-terminal GST/His6-fused recombinant wild type human FLT3 (R571 to S993 residues) expressed in Sf9 insect cells using poly (Ala,Glu,Lys,Tyr) 6:2:5:1 hydrobromide as substrate in presence of [gamma-33P]ATP

Rattus norvegicus [20] = assay: Toxicity in Wistar rat assessed as clinical signs of intoxication at 200 mg/kg, po measured over 15 days; assay type: organism-based; details: in vivo, 360 h
in vitro = details: mouse, BA/F3 cells
[21] = target: Calcium/calmodulin-dependent protein kinase type II subunit gamma (Homo sapiens) (UniProt Q13555); details: 10 nM
Calcium/calmodulin-dependent protein kinase type II subunit gamma (Homo sapiens), sequence (Q13555 whole entry): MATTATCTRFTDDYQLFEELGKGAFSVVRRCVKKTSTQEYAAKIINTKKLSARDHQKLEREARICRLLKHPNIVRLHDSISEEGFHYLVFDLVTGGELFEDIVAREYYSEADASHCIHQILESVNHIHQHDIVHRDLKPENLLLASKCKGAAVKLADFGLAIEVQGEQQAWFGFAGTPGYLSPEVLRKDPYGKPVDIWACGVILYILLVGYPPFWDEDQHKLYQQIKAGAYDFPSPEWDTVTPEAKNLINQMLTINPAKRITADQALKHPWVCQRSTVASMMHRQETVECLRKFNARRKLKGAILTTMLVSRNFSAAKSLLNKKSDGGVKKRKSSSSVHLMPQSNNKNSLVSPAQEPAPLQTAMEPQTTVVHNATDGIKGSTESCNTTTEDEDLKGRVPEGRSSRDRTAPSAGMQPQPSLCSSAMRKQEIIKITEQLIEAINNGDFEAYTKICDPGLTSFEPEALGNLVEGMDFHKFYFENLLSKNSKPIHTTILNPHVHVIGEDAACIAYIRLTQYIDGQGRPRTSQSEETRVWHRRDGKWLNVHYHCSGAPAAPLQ
Description: Inhibition of full length human N-terminal GST-tagged CAMK2gamma expressed in baculovirus expression system at 10 nM relative to control

MV4-11 [22] = assay: Cell cycle arrest in human MV4-11 cells assessed as accumulation at G1 phase at 0.1 nM after 24 hrs by propidium iodide staining-based flow cytometric method (reference value: 56%); assay type: functional
[23] = target: Receptor-type tyrosine-protein kinase FLT3 (Homo sapiens, UniProt P36888, ITD); assay: biochemical; assay type: cell-based, Sf9
Description: Inhibition of N-terminal GST/His6-fused recombinant human FLT3 (R571 to S993 residues) ITD mutant expressed in Sf9 insect cells using poly (Ala,Glu,Lys,Tyr) 6:2:5:1 hydrobromide as substrate in presence of [gamma-33P]ATP

[24] = test system: Mast/stem cell growth factor receptor Kit (Homo sapiens), P10721 [D816V]; details: 10 nM
Mast/stem cell growth factor receptor Kit (Homo sapiens), P10721 [D816V], sequence (P10721 whole entry D816V): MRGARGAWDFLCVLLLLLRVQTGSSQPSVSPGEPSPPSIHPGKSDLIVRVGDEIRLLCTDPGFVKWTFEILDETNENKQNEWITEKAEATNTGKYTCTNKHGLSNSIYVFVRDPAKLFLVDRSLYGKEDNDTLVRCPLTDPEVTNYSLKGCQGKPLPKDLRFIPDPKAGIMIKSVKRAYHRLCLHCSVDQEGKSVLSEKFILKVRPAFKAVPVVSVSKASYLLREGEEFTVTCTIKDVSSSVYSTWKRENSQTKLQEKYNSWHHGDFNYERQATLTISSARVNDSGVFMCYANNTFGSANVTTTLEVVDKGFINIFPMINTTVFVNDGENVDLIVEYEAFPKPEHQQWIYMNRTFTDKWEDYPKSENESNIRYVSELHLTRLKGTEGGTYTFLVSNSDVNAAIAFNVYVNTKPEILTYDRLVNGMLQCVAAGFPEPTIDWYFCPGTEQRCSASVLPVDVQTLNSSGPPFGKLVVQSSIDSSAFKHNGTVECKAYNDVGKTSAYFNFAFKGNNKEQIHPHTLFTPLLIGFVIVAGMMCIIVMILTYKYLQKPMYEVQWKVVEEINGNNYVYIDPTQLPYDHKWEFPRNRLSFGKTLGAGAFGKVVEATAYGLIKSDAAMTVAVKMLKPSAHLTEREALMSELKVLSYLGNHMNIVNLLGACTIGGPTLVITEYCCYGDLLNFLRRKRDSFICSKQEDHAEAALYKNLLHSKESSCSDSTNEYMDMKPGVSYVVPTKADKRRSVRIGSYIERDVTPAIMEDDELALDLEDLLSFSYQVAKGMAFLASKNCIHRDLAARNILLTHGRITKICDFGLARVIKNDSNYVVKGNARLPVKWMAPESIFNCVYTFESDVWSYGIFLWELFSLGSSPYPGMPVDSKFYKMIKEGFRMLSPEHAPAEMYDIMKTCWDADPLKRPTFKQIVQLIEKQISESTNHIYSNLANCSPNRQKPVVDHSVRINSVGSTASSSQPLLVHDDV
Description: Inhibition of human N-terminal GST-tagged KIT D816V mutant cytoplasmic domain expressed in baculovirus expression system at 10 nM relative to control

What does the source list for `N[C@H]1CC[C@H](Nc2nc(Nc3ccc(CN4CCOCC4)cc3)c3ncn(C4CCCC4)c3n2)CC1`?
Activity (MV4-11 [1]): 45.9%; inhibition [2]: Active; GI50 (U-937): 664 nM; Activity (Rattus norvegicus [3]): Non-Toxic; GI50 (MV4-11 [4]): 2 nM; inhibition [5]: Active; Activity (MV4-11 [6]): 29.9%; Activity (MV4-11 [7]): 1.2%; inhibition [8]: > 90%; GI50 [9]: 34 nM; Activity (MV4-11 [10]): Active; inhibition [11]: > 90%; inhibition [12]: Active; inhibition [13]: > 90%; Activity (MV4-11 [14]): 28%; inhibition in vivo at 10 mg/kg (Mus musculus): 95%; inhibition [15]: > 90%; GI50 (Kasumi 1): 513 nM; inhibition [16]: > 90%; Activity (Rattus norvegicus [17]): Non-Toxic; inhibition [18]: > 90%; IC50 [19]: 13 nM; Activity (Rattus norvegicus [20]): Non-Toxic; GI50 at 72 h (in vitro): 1140 nM; inhibition [21]: > 90%; Activity (MV4-11 [22]): 59.7%; IC50 [23]: 3 nM; inhibition [24]: > 90%
